Laboratory results published in patent EP4737450A1 (Longwood Pharmaceuticals (Hangzhou) Co., Ltd, priority 2023, dated 2025).
pIC50: −log10 of the molar value.

Legend:
plasma kallikrein (PKa) [1] = biological target: T1, plasma kallikrein (PKa) (Homo sapiens, UniProt P03952); assay: Inhibitory activity against plasma kallikrein in vitro (fluorescence intensity enzyme assay, Pro-Phe-Arg-AMC substrate); format: biochemical; details: Pro-Phe-Arg-AMC substrate
T1 construct: purchased R & D 2497-SE
Procedure, shortened: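 Fluorescence intensity enzyme assay with 10 nM enzyme and 60 µM Pro-Phe-Arg-AMC (final concentrations). Compounds in DMSO, tested in duplicate over a dose series. IC50 from nonlinear regression curve fitting.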

FXIa = FXIa (Homo sapiens, UniProt P03951); assay: Inhibitory activity against FXIa in vitro (biochemical assay)
FXIa, sequence (P03951 388-625 limits assumed): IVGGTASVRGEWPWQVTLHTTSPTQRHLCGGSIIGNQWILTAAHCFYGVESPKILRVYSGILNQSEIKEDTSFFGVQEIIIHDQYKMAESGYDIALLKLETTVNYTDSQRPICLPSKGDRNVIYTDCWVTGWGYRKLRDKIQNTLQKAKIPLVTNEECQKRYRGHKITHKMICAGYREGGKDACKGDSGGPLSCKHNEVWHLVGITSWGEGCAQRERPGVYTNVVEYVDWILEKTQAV
FXIa, sequence (P03951 19-387 partner limits assumed): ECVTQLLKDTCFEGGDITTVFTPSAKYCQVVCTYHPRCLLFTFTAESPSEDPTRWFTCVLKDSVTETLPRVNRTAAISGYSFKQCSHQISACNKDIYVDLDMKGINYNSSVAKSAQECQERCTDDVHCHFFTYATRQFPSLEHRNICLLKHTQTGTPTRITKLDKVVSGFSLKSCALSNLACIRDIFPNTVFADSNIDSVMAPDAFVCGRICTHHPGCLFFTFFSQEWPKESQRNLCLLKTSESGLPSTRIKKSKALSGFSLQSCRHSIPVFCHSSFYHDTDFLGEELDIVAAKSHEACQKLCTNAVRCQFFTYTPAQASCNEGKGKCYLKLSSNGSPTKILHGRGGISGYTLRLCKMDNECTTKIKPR
Procedure, shortened: (§1)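 Compounds were dispensed acoustically from DMSO and tested in duplicate. IC50 values came from nonlinear regression curve fitting.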

plasma kallikrein (PKa) [2] = biological target: T1, plasma kallikrein (PKa); assay: PKa inhibition in kaolin-activated human platelet-poor plasma (PPP); format: biochemical; details: Pro-Phe-Arg-AMC substrate, fluorescence signal
Experimental: Test Example 2. Evaluation of the compounds of the present invention in terms of PKa Inhibition in Kaolin-Activated Human PPP: Platelet-poor plasma (PPP) obtained from human whole blood, anticoagulated with Na - Citrate, was incubated with various concentrations of the test compounds and 25, 75, 250, or 750 µg/mL kaolin in assay buffer for 20 minutes at 37°C, so that a concentration response of the test compounds was obtained with respect to various kaolin concentrations. The positive drug was diluted in accordance with the reference concentration and diluted 3-fold with the diluent as the first point.
50 nL of compounds were then transferred to a 384 assay plate containing 2 replicates per well. The 384 assay plate was centrifuged at 1000 rpm/min. 2.5 µL of human plasma working solution was added to each assay well. The 384 assay plate was centrifuged at 1000 RPM. 2.5 µL of kaolin working solution was added to each assay well. The 384 assay plate was centrifuged at 1000 RPM and incubated at 25°C for 20 minutes. 5 µL of Pro-Phe-Arg-AMC working solution was added to each assay well. The 384 assay plate was centrifuged at 1000 RPM and incubated at 25°C for 60 minutes. BMG reads the fluorescence signal.
The percent inhibition of the compound was calculated according to the following formula: [formula]

KLK1 = KLK1 (Homo sapiens, UniProt P06870); assay: Inhibitory activity against KLK1 in vitro (biochemical assay)
KLK1, sequence (P06870 25-262, species assumed): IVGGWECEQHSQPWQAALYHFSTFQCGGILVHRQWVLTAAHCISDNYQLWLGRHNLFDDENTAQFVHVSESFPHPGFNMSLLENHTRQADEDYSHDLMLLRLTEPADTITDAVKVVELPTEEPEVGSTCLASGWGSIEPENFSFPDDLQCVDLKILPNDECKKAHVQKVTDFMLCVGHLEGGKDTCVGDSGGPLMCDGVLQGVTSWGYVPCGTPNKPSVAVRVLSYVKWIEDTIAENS
Procedure, shortened: as §1

[3] = plasma kallikrein enzyme assay, read-out: PKa IC50

T1 sequence (P03952 391-638 limits assumed): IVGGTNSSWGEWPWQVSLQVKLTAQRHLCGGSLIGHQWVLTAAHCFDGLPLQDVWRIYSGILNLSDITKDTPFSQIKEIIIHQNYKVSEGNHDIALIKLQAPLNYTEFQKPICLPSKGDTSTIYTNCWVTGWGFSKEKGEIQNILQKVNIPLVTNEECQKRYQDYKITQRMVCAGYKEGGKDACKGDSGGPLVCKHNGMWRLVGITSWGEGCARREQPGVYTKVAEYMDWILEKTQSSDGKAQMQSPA
T1 sequence (P03952 20-390 partner limits assumed): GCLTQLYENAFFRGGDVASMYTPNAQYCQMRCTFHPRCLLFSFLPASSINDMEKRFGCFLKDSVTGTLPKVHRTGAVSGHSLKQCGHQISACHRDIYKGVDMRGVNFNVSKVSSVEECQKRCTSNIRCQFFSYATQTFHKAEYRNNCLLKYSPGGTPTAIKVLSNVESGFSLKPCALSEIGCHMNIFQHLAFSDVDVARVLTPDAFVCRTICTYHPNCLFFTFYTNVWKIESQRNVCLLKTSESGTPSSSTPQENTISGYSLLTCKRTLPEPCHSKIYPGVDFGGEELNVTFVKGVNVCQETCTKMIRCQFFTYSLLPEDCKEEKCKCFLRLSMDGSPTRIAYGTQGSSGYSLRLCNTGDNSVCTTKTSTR

| SMILES | pIC50 (plasma kallikrein (PKa) [1]; [3]) | IC50 (FXIa; values given in µM) [µM] | pIC50 (plasma kallikrein (PKa) [2]) | IC50 (KLK1; values given in µM) [µM] | IC50 (FXIa; values in nM) [µM] | IC50 (KLK1; values in nM) [µM] | pIC50 (plasma kallikrein (PKa) [1]; PKa IC50, plasma kallikrein enzyme assay) |
| --- | --- | --- | --- | --- | --- | --- | --- |
| Cc1cc(N)nc(C)c1CNC(=O)c1nn(Cc2ccc(Cn3ccccc3=O)cc2)cc1C1CCCO1 (centres unmarked) [Compound 4, N-((6-amino-2,4-dimethylpyridin-3-yl)methyl)-1-(4-((2-oxopyridin-1(2H)-yl)methyl)benzyl)-4-(tetrahydrofuran-2-yl)-1H-pyrazole-3-carboxamide] | 9.81 | > 10 | 7.88 | > 10 |  |  |  |
| Cc1cc(N)nc(C)c1CNC(=O)c1ncn(Cc2ccc(Cn3ccccc3=O)cc2)n1 [Compound 11, N-((6-amino-2,4-dimethylpyridin-3-yl)methyl)-1-(4-((2-oxopyridin-1(2H)-yl)methyl)benzyl)-1H-1,2,4-triazole-3-carboxamide] | 10.52 |  | 8.22 |  | > 0.5 | > 0.5 |  |
| COCc1nn(Cc2ccc(Cn3cccn3)cc2)cc1C(=O)NCc1c(C)cc(N)nc1C [Compound 14, 1-(4-((1H-pyrazol-1-yl)methyl)benzyl)-N-((6-amino-2,4-dimethylpyridin-3-yl)methyl)-3-(methoxymethyl)-1H-pyrazol-4-carboxamide] | 9.67 |  | 8.12 |  | > 0.5 | > 0.5 |  |
| Cc1cc(N)nc(C)c1CNC(=O)c1cnc(Cc2cn3cc(C4CC4)ccc3n2)o1 [Compound 18] | 9.39 | > 10 | 8.10 | > 10 |  |  |  |
| Cc1cc(N)nc(C)c1CNC(=O)c1coc(Cc2cn3cc(C4CC4)ccc3n2)n1 [Compound 19] | 9.20 | > 10 | 7.63 | > 10 |  |  |  |
| Cc1cc(N)nc(C)c1CNC(=O)c1ncn(Cc2ccc(Cn3cc(F)ccc3=O)cc2)n1 [Compound 23] | > 10.30 | > 10 | 8.10 | > 10 |  |  |  |
| N=C(N)c1ccc(CNC(=O)c2coc(Cc3cn4cc(C5CC5)ccc4n3)n2)cc1 [Compound 37] | 9.80 | > 10 | 8.17 | > 10 |  |  |  |
| COCc1nn(Cc2cn3cc(C4CC4)ccc3n2)cc1C(=O)NCc1ccc(C(=N)N)cc1 [Compound 39] | > 10.30 | > 10 | 7.13 | > 10 |  |  |  |
| Nc1nccc2cc(CNC(=O)c3ncn(Cc4ccc(Cn5ccccc5=O)cc4)n3)ccc12 [Compound 76] | 9.02 | > 10 | 7.90 | > 10 |  |  |  |
| N=C(N)c1ccc(CNC(=O)c2cnn(Cc3ccc(CC4CC4)cc3)c2C(F)(F)F)cc1 [Compound 109] | 9.46 | > 10 | 8.08 | > 10 |  |  |  |
| N=C(N)c1ccc(CNC(=O)c2cnn(Cc3ccc(Oc4ccccc4)cc3)c2)cc1 [Compound 128] |  | > 10 | 7.88 | > 10 |  |  | 9.25 |
| Nc1noc2ccc(CNC(=O)c3cnn(Cc4ccc(Cn5ccccc5=O)cc4)c3)cc12 [Compound 214] | 9.80 | > 10 | 7.83 | > 10 |  |  |  |
| COCc1nn(Cc2ccc(Cn3ccccc3=O)cc2)cc1C(=O)NCc1ccc(C(=N)N)cc1F [Compound 241] | 10.10 | > 10 | 7.71 | > 10 |  |  |  |
| N=C(N)c1ccc(CNC(=O)c2cnn(Cc3ccc(CC4CC4)cc3)c2)cn1 [Compound 242] | 8.64 | > 10 | 7.39 | > 10 |  |  |  |
